Experimental data reported in patent US9434725B2, “5-azaindazole compounds and methods of use” (priority 2012, dated 2016).
Counter-ions that a name gives are not always drawn.

Tests used:
Format in all cases: biochemical
PIM1 = PIM1 (Homo sapiens (Human), UniProt P11309); test: biochemical; settings: 10 μM ATP, 90 min, room temperature; read-out: PIM1 LC3K (KI)
Protocol: (§1) A fluorescent-labeled Pim-specific peptide substrate, was custom synthesized by American Peptide Company (Sunnyvale, Calif.). Reaction Buffer contained 10 mM HEPES, pH 7.2, 10 mM MgCl2, 0.01% Tween 20, 2 mM DTT. Termination Buffer contained 190 mM HEPES, pH 7.2, 0.015% Brij-35, 0.2% Coating Reagent 3 (Caliper Life Sciences, Hopkinton, Mass.), 20 mM EDTA. Separation Buffer contained 100 mM HEPES, pH 7.2, 0.015% Brij-35, 0.1% Coating Reagent 3, 1:200 Coating Reagent 8 (Caliper Life Sciences, Hopkinton, Mass.), 10 mM EDTA and 5% DMSO.
(§2) PIM reactions were carried out in a final volume of 10 μL per well in a 384-well plate. […] After 90 minutes of incubation at room temperature, the phosphorylation reaction was stopped by the addition of 10 μL Termination Buffer. The product and substrate in each independent reaction were separated on a 12-sipper microfluidic chip (Caliper Life Sciences, Hopkinton, Mass.) run on a Caliper LC3000® (Caliper Life Sciences, Hopkinton, Mass.). The separation of product and substrate was optimized by choosing voltages and pressure using Caliper's Optimizer software (Hopkinton, Mass.). […] Substrate conversion was calculated from the electropherogram using HTS Well Analyzer software (Caliper Life Sciences, Hopkinton, Mass.). Ki values for the test compound were calculated.

PIM3 = PIM3 (Homo sapiens (Human), UniProt Q86V86); test: Pim kinase binding activity, Caliper LC3000 microfluidic peptide phosphorylation assay, PIM3; settings: 10 μM ATP, 90 min, room temperature; read-out: PIM3 LC3K (KI)
Protocol: as §1, §2

PIM2 = PIM2 (Homo sapiens (Human), UniProt Q9P1W9); test: Pim kinase binding activity, Caliper LC3000 microfluidic peptide phosphorylation assay, PIM2; settings: 10 μM ATP, 90 min, room temperature; read-out: PIM2 LC3K (KI)
Protocol: as §1, §2

Chain of PIM2 (Q9P1W9 whole entry): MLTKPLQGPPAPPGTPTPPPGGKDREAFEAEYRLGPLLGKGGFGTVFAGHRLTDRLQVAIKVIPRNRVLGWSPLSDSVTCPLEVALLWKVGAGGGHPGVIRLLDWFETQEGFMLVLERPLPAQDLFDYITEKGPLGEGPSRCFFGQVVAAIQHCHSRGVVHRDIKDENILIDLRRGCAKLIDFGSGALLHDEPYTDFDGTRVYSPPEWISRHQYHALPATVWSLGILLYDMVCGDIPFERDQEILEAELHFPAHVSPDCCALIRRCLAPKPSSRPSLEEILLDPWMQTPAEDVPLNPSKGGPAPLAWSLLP
Chain of PIM1 (P11309 whole entry): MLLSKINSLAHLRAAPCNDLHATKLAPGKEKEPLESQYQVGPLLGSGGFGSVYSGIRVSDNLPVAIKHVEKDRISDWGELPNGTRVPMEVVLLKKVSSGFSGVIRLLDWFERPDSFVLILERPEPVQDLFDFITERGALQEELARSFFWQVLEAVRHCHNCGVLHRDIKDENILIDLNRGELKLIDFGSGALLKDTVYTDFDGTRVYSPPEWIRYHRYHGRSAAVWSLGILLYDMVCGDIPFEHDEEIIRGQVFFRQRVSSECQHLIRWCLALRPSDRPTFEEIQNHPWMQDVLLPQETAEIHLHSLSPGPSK

Ki (PIM1) [nM] | Ki (PIM3) [nM] | Ki (PIM2) [nM] | SMILES
20.5 | 8.02 | 91.2 | CC(C)(C)c1cncc(-c2cc3c(cn2)cnn3-c2cccc(N3CCNCC3)n2)n1 [Compound 170, 6-(6-tert-butylpyrazin-2-yl)-1-(6-piperazin-1-yl-2-pyridyl)pyrazolo[4,3-c]pyridine]
0.784 | 0.507 | 23.3 | Cn1cc(-c2cc3c(cn2)cnn3-c2cccc(N3CC(N)C3)n2)cn1 [Compound 257, 1-(6-(6-(1-Methyl-1H-pyrazol-4-yl)-1H-pyrazolo[4,3-c]pyridin-1-yl)pyridin-2-yl)azetidin-3-amine]
528 | 903 | 2300 | Cc1cncc(-c2cc3c(cn2)cnn3-c2cc(N3CCC[C@H](N)C3)c(=O)n(C)c2)n1 [Compound 233, (S)-3-(3-aminopiperidin-1-yl)-1-methyl-5-(6-(6-methylpyrazin-2-yl)-1H-pyrazolo[4,3-c]pyridin-1-yl)pyridin-2(1H)-one]
0.716 | 0.655 | 13.7 | Cc1cncc(-c2cc3c(cn2)cnn3-c2cccc(N3CCC4(CCNCC4)C3)n2)n1 [Compound 199, 2-[6-[6-(6-methylpyrazin-2-yl)pyrazolo[4,3-c]pyridin-1-yl]-2-pyridyl]-2 8-diazaspiro[4.5]decane]
15.7 | 27 | 194 | FC(F)(F)Cn1cc(-c2cc3c(cn2)cnn3-c2cccc(N3CC4(CCCCN4)C3)n2)cn1 [Compound 269, 1-(6-(2,5-Diazaspiro[3.5]nonan-2-yl)pyridin-2-yl)-6-(1-(2,2,2-trifluoroethyl)-1H-pyrazol-4-yl)-1H-pyrazolo[4,3-c]pyridine]
0.026 | 0.032 | 0.257 | Cc1cncc(-c2cc3c(cn2)cnn3-c2cnc(C3CC3)c(N3CCC[C@H](N)C3)n2)n1 [Compound 238, (3S)-1-[3-cyclopropyl-6-[6-(6-methylpyrazin-2-yl)pyrazolo[4,3-c]pyridin-1-yl]pyrazin-2-yl]piperidin-3-amine]
1.21 | 1.09 | 9.54 | FC(F)n1cc(-c2cc3c(cn2)cnn3-c2cccc(N3CCCNCC3)n2)cn1 [Compound 173, 1-(6-(1,4-Diazepan-1-yl)pyridin-2-yl)-6-(1-(difluoromethyl)-1H-pyrazol-4-yl)-1H-pyrazolo[4,3-c]pyridine]
1.65 | 0.89 | 10.4 | Cc1cncc(-c2cc3c(cn2)cnn3-c2cnc(Cl)c(N3CCC[C@H](N)C3)n2)n1 [Compound 226, (3S)-1-[3-chloro-6-[6-(6-methylpyrazin-2-yl)pyrazolo[4,3-c]pyridin-1-yl]pyrazin-2-yl]piperidin-3-amine]
11.3 | 6.72 | 196 | c1cc(N2CCCNCC2)nc(-n2ncc3cnc(-c4cncnc4)cc32)c1 [Compound 175, 1-(6-(1,4-Diazepan-1-yl)pyridin-2-yl)-6-(pyrimidin-5-yl)-1H-pyrazolo[4,3-c]pyridine]
1.55 | 0.806 | 16.5 | Cn1cc(-c2cc3c(cn2)cnn3-c2cccc(C3CCCNCC3)n2)cn1 (stereo not drawn) [Compound 235, 1-(6-(azepan-4-yl)pyridin-2-yl)-6-(1-methyl-1H-pyrazol-4-yl)-1H-pyrazolo[4,3-c]pyridine]
3.53 | 0.762 | 45.5 | Cc1cncc(-c2cc3c(cn2)cnn3-c2cn(C)c(=O)c(N3CCC[C@H](N)C3)n2)n1 [Compound 241, (S)-3-(3-aminopiperidin-1-yl)-1-methyl-5-(6-(6-methylpyrazin-2-yl)-1H-pyrazolo[4,3-c]pyridin-1-yl)pyrazin-2(1H)-one]
0.155 | 0.306 | 14.9 | OC1CNCCN(c2cccc(-n3ncc4cnc(-c5cncc(C6CC6)c5)cc43)n2)C1 (stereo not drawn) [Compound 115, 1-(6-(6-(5-cyclopropylpyridin-3-yl)-1H-pyrazolo[4,3-c]pyridin-1-yl)pyridin-2-yl)-1,4-diazepan-6-ol]
3.89 | 0.743 | 24.8 | Cc1cncc(-c2cc3c(cn2)cnn3-c2cc(C3COC3)cc(N3CCC[C@H](N)C3)n2)n1 [Compound 250, (S)-1-(6-(6-(6-methylpyrazin-2-yl)-1H-pyrazolo[4,3-c]pyridin-1-yl)-4-(oxetan-3-yl)pyridin-2-yl)piperidin-3-amine]
2.94 | 6.37 | 58.2 | CO[C@]1(C)CNCCN(c2cccc(-n3ncc4cnc(-c5cnn(CC(F)(F)F)c5)cc43)n2)C1 [Compound 264, (R)-1-(6-(6-Methoxy-6-methyl-1,4-diazepan-1-yl)pyridin-2-yl)-6-(1-(2,2,2-trifluoroethyl)-1H-pyrazol-4-yl)-1H-pyrazolo[4,3-c]pyridine]
0.316 | 0.131 | 9.39 | Cn1cc(-c2cc3c(cn2)cnn3-c2cccc(N3CCNC[C@@H](O)C3)n2)cn1 [Compound 229, (R)-1-(6-(6-(1-Methyl-1H-pyrazol-4-yl)-1H-pyrazolo[4,3-c]pyridin-1-yl)pyridin-2-yl)-1,4-diazepan-6-ol]
2.16 | 3.09 | 16.8 | C[C@@]1(O)CNCCN(c2cccc(-n3ncc4cnc(-c5cnn(CC(F)(F)F)c5)cc43)n2)C1 [Compound 249, (R)-6-Methyl-1-(6-(6-(1-(2,2,2-trifluoroethyl)-1H-pyrazol-4-yl)-1H-pyrazolo[4,3-c]-pyridin-1-yl)pyridin-2-yl)-1,4-diazepan-6-ol]
128 | 45.2 | 4100 | Cn1ncc(-c2cc3c(cn2)cnn3-c2cccc(N3CCCNCC3)n2)cc1=O [Compound 148, 5-(1-(6-(1,4-diazepan-1-yl)pyridin-2-yl)-1H-pyrazolo[4,3-c]pyridin-6-yl)-2-methylpyridazin-3(2H)-one]
5.58 | 2.02 | 83.2 | Cn1cc(-c2cc3c(cn2)cnn3-c2cccc(N3CC(CN)C3)n2)cn1 [Compound 256, (1-(6-(6-(1-Methyl-1H-pyrazol-4-yl)-1H-pyrazolo[4,3-c]pyridin-1-yl)pyridin-2-yl)azetidin-3-yl)methanamine]
2.12 | 0.84 | 11.1 | CCn1cc(-c2cc3c(cn2)cnn3-c2cccc(N3CC[C@H](N)C3)n2)cn1 [Compound 135, (S)-1-(6-(6-(1-ethyl-1H-pyrazol-4-yl)-1H-pyrazolo[4,3-c]pyridin-1-yl)pyridin-2-yl)pyrrolidin-3-amine]
0.951 | 0.473 | 10.8 | CCn1cc(-c2cc3c(cn2)cnn3-c2cccc(N3CCC[C@@H](N)C3)n2)cn1 [Compound 134, (R)-1-(6-(6-(1-ethyl-1H-pyrazol-4-yl)-1H-pyrazolo[4,3-c]pyridin-1-yl)pyridin-2-yl)piperidin-3-amine]
1.04 | 0.363 | 16.1 | N#Cc1cncc(-c2cc3c(cn2)cnn3-c2cccc(N3CCNCC3)n2)n1 [Compound 177, 6-[1-(6-piperazin-1-yl-2-pyridyl)pyrazolo[4,3-c]pyridin-6-yl]pyrazine-2-carbonitrile]
0.58 | 0.385 | 15.9 | CCn1cc(-c2cc3c(cn2)cnn3-c2cccc(N3CCNC(C)(C)C3)n2)cn1 [Compound 131, 1-(6-(3,3-dimethylpiperazin-1-yl)pyridin-2-yl)-6-(1-ethyl-1H-pyrazol-4-yl)-1H-pyrazolo[4,3-c]pyridine]

SMILES | Ki (PIM1) [nM] | Ki (PIM3) [nM] | Ki (PIM2) [nM]
Cc1ccc(-n2ncc3cnc(-c4cnn(CC(F)(F)F)c4)cc32)nc1N1CCNC[C@H](O)C1 (single isomer, unassigned) [Compound 263] | 0.253 | 0.536 | 6.51
NC1CN(c2cccc(-n3ncc4cnc(-c5cnn(CC(F)(F)F)c5)cc43)n2)C1 [Compound 258, 1-(6-(6-(1-(2,2,2-Trifluoroethyl)-1H-pyrazol-4-yl)-1H-pyrazolo[4,3-c]pyridin-1-yl)pyridin-2-yl)azetidin-3-amine] | 0.514 | 1.14 | 8.18
Clc1cncc(-c2cc3c(cn2)cnn3-c2cccc(N3CCNCC3)n2)n1 [Compound 275, 6-(6-Chloropyrazin-2-yl)-1-(6-(piperazin-1-yl)pyridin-2-yl)-1H-pyrazolo[4,3-c]pyridine dihydrochloride] | 0.725 | 0.267 | 5.74
Cc1cncc(-c2cc3c(cn2)cnn3-c2cccc(N3CCCN(C4COC4)CC3)n2)n1 [Compound 240, 6-(6-methylpyrazin-2-yl)-1-(6-(4-(oxetan-3-yl)-1,4-diazepan-1-yl)pyridin-2-yl)-1H-pyrazolo[4,3-c]pyridine] | 1.51 | 2.03 | 31.7
Cc1cncc(-c2cc3c(cn2)cnn3-c2cccc(C3=CCNCC3)n2)n1 [Compound 160, 6-(6-methylpyrazin-2-yl)-1-[6-(1 2 3 6-tetrahydropyridin-4-yl)-2-pyridyl]pyrazolo[4,3-c]pyridine] | 1.17 | 1.06 | 8.31
